According to patent publication EP1038533A1, “MEDICINAL COMPOSITIONS FOR TREATING IMMUNODEFICIENCY DISEASES” (Nippon Kayaku Kabushiki Kaisha, priority 1997, dated 1999):
Read-outs that look alike come from different tables or passages of the source.

Assays:
[1] = system: HIV (human immunodeficiency virus); type: in vivo; conditions: patient
Method: (§1) The therapeutic effect of 15-deoxyspergualin for immunodeficiency was clinically investigated by administering the compound to HIV-infected patients. The details are shown below.
To a patient who was diagnosed as a HIV positive 1 year and 10 months ago, the 15-deoxyspergualin injection of Example 1 later described was intravenously administered for consecutive 15 days in a dose of 0.15 mg/kg body weight/day. This cycle was made one course. Then, no drug period was set for 6 weeks followed by repetition with 2 courses with the same interval between the second course and the third couse, as well.
The CD4^+/CD8^+ level was measured immediately before and after each course and, 3 months and 2 years after the completion of Course 3, namely, 8 measurements in total.

[2] = system: HIV (human immunodeficiency virus); assay: Test Example 2: clinical administration of 15-deoxyspergualin injection to five HIV positive carriers; type: in vivo; conditions: 0.15 mg/kg body weight/day i.v. 14 days per course
Method: as §1
To five (5) carriers diagnosed as HIV positive, the 15-deoxyspergualin injection was intravenously administered for consecutive 14 days in a dose of 0.15 mg/kg body weight/day. This cycle was made one course. Then, no drug period was set for 6 weeks followed by repetition with 2 courses with the same interval between the second course and the third course, as well. The CD4^+ cell count, CD4^+ /CD8^+ level and virus load, etc. were measured immediately before and after each course and 6 weeks after the completion of Course 3, respectively.

[3] = throughout the entire period of the treatment
[4] = Case 1, 6 Weeks after completion of Course 3
[5] = Case 1, Immediately after Course 1
[6] = Case 1, Immediately after Course 2
[7] = Case 1, Immediately after Course 3
[8] = Case 1, Immediately before Course 1 (before treatment)
[9] = Case 1, Immediately before Course 2
[10] = Case 1, Immediately before Course 3
[11] = Case 2, 6 Weeks after completion of Course 3
[12] = Case 2, Immediately after Course 1
[13] = Case 2, Immediately after Course 2
[14] = Case 2, Immediately after Course 3
[15] = Case 2, Immediately before Course 1 (before treatment)
[16] = Case 2, Immediately before Course 2
[17] = Case 2, Immediately before Course 3
[18] = Case 3, 6 Weeks after completion of Course 3
[19] = Case 3, Immediately after Course 1

**Q.** For `N=C(N)NCCCCCCC(=O)NC(O)C(=O)NCCCCNCCCN` (centres unmarked) [15-deoxyspergualin], which “CD4^+/CD8^+ level” value ([1]; 0.15 mg/kg body weight/day i.v. 15 days per course, 2 Years after completion of Course 3) is on record?
**A.** Its value is 0.90.

**Q.** And the “CD4^+/CD8^+ level” value ([1]; 0.15 mg/kg body weight/day i.v. 15 days per course, 3 Months after completion of Course 3)?
**A.** Its value is 0.93.

**Q.** And the “CD4^+/CD8^+ level” value ([1]; 0.15 mg/kg body weight/day i.v. 15 days per course, Immediately after Course 1)?
**A.** Its value is 0.72.

**Q.** And the “CD4^+/CD8^+ level” value ([1]; 0.15 mg/kg body weight/day i.v. 15 days per course, Immediately after Course 2)?
**A.** The value was 0.75.

**Q.** And the “CD4^+/CD8^+ level” value ([1]; 0.15 mg/kg body weight/day i.v. 15 days per course, Immediately after Course 3)?
**A.** Its value is 0.84.

**Q.** What about the “CD4^+/CD8^+ level” value ([1]; 0.15 mg/kg body weight/day i.v. 15 days per course, Immediately before Course 1 (before treatment)) of the same compound?
**A.** The value was 0.68.

**Q.** What about the “CD4^+/CD8^+ level” value ([1]; 0.15 mg/kg body weight/day i.v. 15 days per course, Immediately before Course 2) of the same compound?
**A.** The value was 0.78.

**Q.** What about the “CD4^+/CD8^+ level” value ([1]; 0.15 mg/kg body weight/day i.v. 15 days per course, Immediately before Course 3) of the same compound?
**A.** Its value is 0.87.

**Q.** And the “decrease of CD4^+/CD8^+ level immediately after Courses 2 and 3 versus immediately before the courses” value ([1]; 0.15 mg/kg body weight/day i.v. 15 days per course, attributed to weak bone marrow suppression)?
**A.** The value was 0.03.

**Q.** And the complaint of fatigue ([1]; 0.15 mg/kg body weight/day i.v. 15 days, after Course 1 was finished)?
**A.** The complaint of fatigue was “disappeared completely”.

**Q.** And the leucocyte count [1, 3]?
**A.** The leucocyte count was “approximately 6200”.

**Q.** What about the other side effect [1, 3] of the same compound?
**A.** Its other side effect is “no other side effect was observed at all”.

**Q.** And the “CD4^+ T cell counts” value [2, 4]?
**A.** Its value is 760 µL⁻¹.

**Q.** And the “CD4^+/CD8^+ levels” value [2, 4]?
**A.** Its value is 0.93.

**Q.** What about the Virus loads [2, 4] of the same compound?
**A.** Its Virus loads is 6000 particles/ml.

**Q.** What about the “CD4^+ T cell counts” value [2, 5] of the same compound?
**A.** The value was 680 µL⁻¹.

**Q.** And the “CD4^+/CD8^+ levels” value [2, 5]?
**A.** The value was 0.82.

**Q.** And the Virus loads [2, 5]?
**A.** The Virus loads was 8600 particles/ml.

**Q.** And the “CD4^+ T cell counts” value [2, 6]?
**A.** Its value is 740 µL⁻¹.

**Q.** And the “CD4^+/CD8^+ levels” value [2, 6]?
**A.** Its value is 0.86.

**Q.** And the Virus loads [2, 6]?
**A.** The Virus loads was 8000 particles/ml.

**Q.** And the “CD4^+ T cell counts” value [2, 7]?
**A.** Its value is 750 µL⁻¹.

**Q.** And the “CD4^+/CD8^+ levels” value [2, 7]?
**A.** The value was 0.93.

**Q.** And the Virus loads [2, 7]?
**A.** Its Virus loads is 7000 particles/ml.

**Q.** And the “CD4^+ T cell counts” value [2, 8]?
**A.** The value was 680 µL⁻¹.

**Q.** And the “CD4^+/CD8^+ levels” value [2, 8]?
**A.** The value was 0.78.

**Q.** What about the Virus loads [2, 8] of the same compound?
**A.** The Virus loads was 12000 particles/ml.

**Q.** What about the “CD4^+ T cell counts” value [2, 9] of the same compound?
**A.** Its value is 730 µL⁻¹.

**Q.** What about the “CD4^+/CD8^+ levels” value [2, 9] of the same compound?
**A.** Its value is 0.80.

**Q.** And the Virus loads [2, 9]?
**A.** Its Virus loads is 9000 particles/ml.

**Q.** And the “CD4^+ T cell counts” value [2, 10]?
**A.** Its value is 720 µL⁻¹.

**Q.** And the “CD4^+/CD8^+ levels” value [2, 10]?
**A.** Its value is 0.85.

**Q.** And the Virus loads [2, 10]?
**A.** The Virus loads was 8200 particles/ml.

**Q.** And the “CD4^+ T cell counts” value [2, 11]?
**A.** Its value is 740 µL⁻¹.

**Q.** What about the “CD4^+/CD8^+ levels” value [2, 11] of the same compound?
**A.** The value was 0.78.

**Q.** What about the Virus loads [2, 11] of the same compound?
**A.** Its Virus loads is 13000 particles/ml.

**Q.** What about the “CD4^+ T cell counts” value [2, 12] of the same compound?
**A.** The value was 740 µL⁻¹.

**Q.** What about the “CD4^+/CD8^+ levels” value [2, 12] of the same compound?
**A.** Its value is 0.72.

**Q.** What about the Virus loads [2, 12] of the same compound?
**A.** Its Virus loads is 13000 particles/ml.

**Q.** And the “CD4^+ T cell counts” value [2, 13]?
**A.** The value was 730 µL⁻¹.

**Q.** And the “CD4^+/CD8^+ levels” value [2, 13]?
**A.** The value was 0.77.

**Q.** What about the Virus loads [2, 13] of the same compound?
**A.** The Virus loads was 14000 particles/ml.

**Q.** And the “CD4^+ T cell counts” value [2, 14]?
**A.** Its value is 750 µL⁻¹.

**Q.** What about the “CD4^+/CD8^+ levels” value [2, 14] of the same compound?
**A.** The value was 0.79.

**Q.** What about the Virus loads [2, 14] of the same compound?
**A.** Its Virus loads is 14000 particles/ml.

**Q.** What about the “CD4^+ T cell counts” value [2, 15] of the same compound?
**A.** Its value is 750 µL⁻¹.

**Q.** What about the “CD4^+/CD8^+ levels” value [2, 15] of the same compound?
**A.** Its value is 0.76.

**Q.** And the Virus loads [2, 15]?
**A.** Its Virus loads is 15000 particles/ml.

**Q.** What about the “CD4^+ T cell counts” value [2, 16] of the same compound?
**A.** The value was 750 µL⁻¹.

**Q.** And the “CD4^+/CD8^+ levels” value [2, 16]?
**A.** Its value is 0.78.

**Q.** What about the Virus loads [2, 16] of the same compound?
**A.** Its Virus loads is 13000 particles/ml.

**Q.** And the “CD4^+ T cell counts” value [2, 17]?
**A.** The value was 760 µL⁻¹.

**Q.** What about the “CD4^+/CD8^+ levels” value [2, 17] of the same compound?
**A.** The value was 0.80.

**Q.** What about the Virus loads [2, 17] of the same compound?
**A.** The Virus loads was 15000 particles/ml.

**Q.** And the “CD4^+ T cell counts” value [2, 18]?
**A.** Its value is 800 µL⁻¹.

**Q.** And the “CD4^+/CD8^+ levels” value [2, 18]?
**A.** Its value is 0.90.

**Q.** And the Virus loads [2, 18]?
**A.** Its Virus loads is 6000 particles/ml.

**Q.** And the “CD4^+ T cell counts” value [2, 19]?
**A.** Its value is 570 µL⁻¹.

**Q.** And the “CD4^+/CD8^+ levels” value [2, 19]?
**A.** The value was 0.73.
